The text below walks through data of patent US9532938B2, “Esters of O-substituted hydroxy carboxylic acids and preparations thereof” (Eastman Chemical Company, priority 2010, dated 2017).

SMILES strings stand for the structures.

This data set concerns the target T1, Novozym 435 (Candida antarctica lipase B immobilized on acrylic resin) (Moesziomyces antarcticus, UniProt P41365).
T1 construct: purchased
Description: Enzymatic hydrolysis of oleyl glycolyl retinoate with Novozym 435. Format: in vitro ADME. The note with it: toluene / pH 7 phosphate buffer. As for the experimental part:
Oleyl glycolyl retinoate (50 mg; 0.082 mmol) was dissolved in 1 mL of toluene. pH 7 Phosphate buffer (1 mL) was added followed by Novozym 435 (50 mg). The mixture was stirred for 1 h at ambient temperature to afford 5% hydrolysis according to HPLC analysis.

T1 sequence (P41365 26-342): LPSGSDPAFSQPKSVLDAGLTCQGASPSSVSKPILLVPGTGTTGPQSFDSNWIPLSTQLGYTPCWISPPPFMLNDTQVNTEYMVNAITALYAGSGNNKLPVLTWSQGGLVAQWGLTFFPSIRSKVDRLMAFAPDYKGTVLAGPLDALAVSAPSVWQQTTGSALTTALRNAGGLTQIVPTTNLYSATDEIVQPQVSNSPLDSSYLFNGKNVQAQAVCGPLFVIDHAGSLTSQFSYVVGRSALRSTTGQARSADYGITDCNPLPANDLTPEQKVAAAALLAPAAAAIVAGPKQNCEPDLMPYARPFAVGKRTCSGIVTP

Turning to `CCCCCCCC/C=C\CCCCCCCCOC(=O)COC(=O)/C=C(C)/C=C/C=C(C)/C=C/C1=C(C)CCCC1(C)C` [Oleyl glycolyl retinoate, Oleyl Glycolyl Retinoate], the “hydrolysis according to HPLC analysis” value (Novozym 435 (50 mg), stirred 1 h at ambient temperature) came to 5%. Further, the “hydrolysis, control reaction without enzyme” value (no enzyme, ambient temperature) was “no hydrolysis”.
